Test results as given in publication PMC8253220, “Molecular design, synthesis and in vitro biological evaluation of thienopyrimidine–hydroxamic acids as chimeric kinase HDAC inhibitors: a challenging approach to combat cancer” (Journal of Enzyme Inhibition and Medicinal Chemistry, 2021).
Values joined by “and” are separate entries in the source; they are usually repeats but may differ in a detail not shown here. Equal entries are not always repeated.

Key:
Assay in all cases: NCI one-dose screen
Assay type in all cases: cell-based, human
NCI-H460 = conditions: NSCLC NCI-H460, 10 µM single dose
Method in brief: (§1)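 One concentration (10 μM) applied to each line of the full NCI-60 panel; percent growth compared against untreated cells.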

OVCAR-5 = conditions: Ovarian OVCAR-5, 10 µM single dose
Method in brief: as §1

CAKI-1 = conditions: Renal CAKI-1, 10 µM single dose
Method in brief: as §1

SK-OV-3 = conditions: Ovarian SK-OV-3, 10 µM single dose
Method in brief: as §1

HCT-116 = conditions: Colon HCT-116, 10 µM single dose
Method in brief: as §1

HCC-2998 = conditions: Colon HCC-2998, 10 µM single dose
Method in brief: as §1

RPMI-8226 = conditions: Leukemia RPMI-8226, 10 µM single dose
Method in brief: as §1

KM12 = conditions: Colon KM12, 10 µM single dose
Method in brief: (§2)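 Percent growth inhibition, referenced to untreated control cells, was determined after a single 10 μM compound exposure in the NCI 60-cell-line anticancer screen.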

SF-295 = conditions: CNS SF-295, 10 µM single dose
Method in brief: as §1

K-562 = conditions: Leukemia K-562, 10 µM single dose
Method in brief: as §1

PC-3 = conditions: Prostate PC-3, 10 µM single dose
Method in brief: (§3)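 Following the standard NCI-60 protocol, compounds were applied once at 10 μM to all 60 cancer lines. Read-out is percent growth versus untreated controls, expressed as inhibition %.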

SK-MEL-28 = conditions: Melanoma SK-MEL-28, 10 µM single dose
Method in brief: as §3

COLO 205 = conditions: Colon COLO 205, 10 µM single dose
Method in brief: as §1

NCI-H322M = conditions: NSCLC NCI-H322M, 10 µM single dose
Method in brief: as §1

TK-10 = conditions: Renal TK-10, 10 µM single dose
Method in brief: as §1

HL-60(TB) = conditions: Leukemia HL-60(TB), 10 µM single dose
Method in brief: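 At 10 μM, a single concentration, compounds were evaluated for antiproliferative effect in the NCI 60-line screen, with growth expressed relative to untreated control cells.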

SF-539 = conditions: CNS SF-539, 10 µM single dose
Method in brief: as §2

MALME-3M = conditions: Melanoma MALME-3M, 10 µM single dose
Method in brief: as §1

OVCAR-8 = conditions: Ovarian OVCAR-8, 10 µM single dose
Method in brief: as §1

MCF7 = conditions: Breast MCF7, 10 µM single dose
Method in brief: as §2

SR = conditions: Leukemia SR, 10 µM single dose
Method in brief: as §1

SN12C = conditions: Renal SN12C, 10 µM single dose
Method in brief: as §1

MDA-MB-435 = conditions: Melanoma MDA-MB-435, 10 µM single dose
Method in brief: as §1

SNB-19 = conditions: CNS SNB-19, 10 µM single dose
Method in brief: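 Single 10 μM dose, NCI-60 panel; read-out = % growth vs untreated controls → % inhibition.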

786-0 = conditions: Renal 786-0, 10 µM single dose
Method in brief: as §1

SF-268 = conditions: CNS SF-268, 10 µM single dose
Method in brief: as §2

MDA-MB-231/ATCC = conditions: Breast MDA-MB-231/ATCC, 10 µM single dose
Method in brief: as §1

T-47D = conditions: Breast T-47D, 10 µM single dose
Method in brief: as §1

NCI-H522 = conditions: NSCLC NCI-H522, 10 µM single dose
Method in brief: (§4)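 Compounds were tested at a single dose of 10 μM across the full NCI-60 cell line panel. Growth was expressed as percent growth relative to untreated control cells, reported as percent inhibition.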

ACHN = conditions: Renal ACHN, 10 µM single dose
Method in brief: as §1

LOX IMVI = conditions: Melanoma LOX IMVI, 10 µM single dose
Method in brief: as §1

OVCAR-3 = conditions: Ovarian OVCAR-3, 10 µM single dose
Method in brief: as §1

UACC-257 = conditions: Melanoma UACC-257, 10 µM single dose
Method in brief: as §3

HOP-92 = conditions: NSCLC HOP-92, 10 µM single dose
Method in brief: as §1

U251 = conditions: CNS U251, 10 µM single dose
Method in brief: as §4

BT-549 = conditions: Breast BT-549, 10 µM single dose
Method in brief: as §1

NCI-H23 = conditions: NSCLC NCI-H23, 10 µM single dose
Method in brief: as §2

Structure (SMILES): Cc1c(C(=O)NCCCC(=O)NO)sc2ncnc(Nc3ccc(NC(=O)Nc4ccccc4)cc3)c12 [Compound 12a, 1–(4-(6-((4-(hydroxyamino)-4-oxobutyl)carbamoyl)-5-methylthieno[2,3-d]pyrimidin-4-ylamino)phenyl)-3-phenylurea]
- Growth Percent (NCI-H460): 102.6% and 102.61%
- Growth Percent (OVCAR-5): 105.1% and 105.14%
- Growth Percent (CAKI-1): 92.8% and 92.88%
- Growth Percent (SK-OV-3): 121.6% and 121.69%
- Growth Percent (HCT-116): 99.5%
- Growth Percent (HCC-2998): 102.1% and 102.15%
- Growth Percent (RPMI-8226): 110.5% and 110.53%
- Growth Percent (KM12): 99.6% and 99.61%
- Growth Percent (SF-295): 102.0% and 102.06%
- Growth Percent (K-562): 97.8% and 97.83%
- Growth Percent (PC-3): 98.9% and 98.99%
- Growth Percent (SK-MEL-28): 109.4% and 109.43%
- Growth Percent (COLO 205): 111.9% and 111.95%
- Growth Percent (NCI-H322M): 99.7% and 99.76%
- Growth Percent (TK-10): 111.3% and 111.37%
- Growth Percent (HL-60(TB)): 101.4% and 101.44%
- Growth Percent (SF-539): 96.5% and 96.54%
- Growth Percent (MALME-3M): 104.5% and 104.57%
- Growth Percent (OVCAR-8): 104.6% and 104.68%
- Growth Percent (MCF7): 92.4% and 92.41%
- Growth Percent (SR): 105.3% and 105.35%
- Growth Percent (SN12C): 99.0% and 99.09%
- Growth Percent (MDA-MB-435): 101.8% and 101.82%
- Growth Percent (SNB-19): 97.1% and 97.12%
- Growth Percent (786-0): 102.3% and 102.37%
- Growth Percent (SF-268): 92.5% and 92.51%
- Growth Percent (MDA-MB-231/ATCC): 92.1% and 92.16%
- Growth Percent (T-47D): 103.9% and 103.98%
- Growth Percent (NCI-H522): 87.7% and 87.71%
- Growth Percent (ACHN): 95.4% and 95.45%
- Growth Percent (LOX IMVI): 93.57%
- Growth Percent (OVCAR-3): 107.1% and 107.19%
- Growth Percent (UACC-257): 104.2% and 104.23%
- Growth Percent (HOP-92): 121.7% and 121.76%
- Growth Percent (U251): 92.3% and 92.32%
- Growth Percent (BT-549): 105.0% and 105.06%
- Growth Percent (NCI-H23): 89.2% and 89.25%

Structure (SMILES): Cc1c(C(=O)NCCC(=O)NO)sc2ncnc(Nc3ccc(F)c(Cl)c3)c12 [Compound 19d, 4–(3-chloro-4-fluorophenylamino)-N-(3-(hydroxyamino)-3-oxopropyl)-5-methylthieno[2,3-d]pyrimidine-6-carboxamide]
- Growth Percent (NCI-H460): 100.4% and 100.44%
- Growth Percent (OVCAR-5): 108.4% and 108.42%
- Growth Percent (CAKI-1): 96.6% and 96.62%
- Growth Percent (SK-OV-3): 129.2% and 129.24%
- Growth Percent (HCT-116): 107.3%
- Growth Percent (HCC-2998): 104.7% and 104.72%
- Growth Percent (RPMI-8226): 110.0% and 110.01%
- Growth Percent (KM12): 103.8% and 103.84%
- Growth Percent (SF-295): 96.0% and 96.07%
- Growth Percent (K-562): 113.3%
- Growth Percent (PC-3): 103.5% and 103.52%
- Growth Percent (SK-MEL-28): 111.5% and 111.54%
- Growth Percent (COLO 205): 117.3% and 117.34%
- Growth Percent (NCI-H322M): 108.1% and 108.11%
- Growth Percent (TK-10): 107.2%
- Growth Percent (HL-60(TB)): 102.8%
- Growth Percent (SF-539): 98.0% and 98.02%
- Growth Percent (MALME-3M): 112.6% and 112.63%
- Growth Percent (OVCAR-8): 101.3% and 101.35%
- Growth Percent (MCF7): 95.1% and 95.18%
- Growth Percent (SR): 110.82%
- Growth Percent (SN12C): 102.7% and 102.77%
- Growth Percent (MDA-MB-435): 101.8% and 101.82%
- Growth Percent (SNB-19): 98.9% and 98.91%
- Growth Percent (786-0): 105.3% and 105.34%
- Growth Percent (SF-268): 96.4% and 96.48%
- Growth Percent (MDA-MB-231/ATCC): 102.5% and 102.53%
- Growth Percent (T-47D): 106.5% and 106.56%
- Growth Percent (NCI-H522): 95.5% and 95.56%
- Growth Percent (ACHN): 102.1% and 102.14%
- Growth Percent (LOX IMVI): 98.8% and 98.84%
- Growth Percent (OVCAR-3): 106.5%
- Growth Percent (UACC-257): 99.7% and 99.74%
- Growth Percent (HOP-92): 117.7% and 117.77%
- Growth Percent (U251): 102.2% and 102.27%
- Growth Percent (BT-549): 113.9% and 113.96%
- Growth Percent (NCI-H23): 100.6%

Structure (SMILES): Cc1c(C(=O)NO)sc2ncnc(Nc3ccccc3)c12 [Compound 15b, N-hydroxy-5-methyl-4-(phenylamino)thieno[2,3-d]pyrimidine-6-carboxamide]
- Growth Percent (NCI-H460): 101.6% and 101.66%
- Growth Percent (OVCAR-5): 98.4% and 98.41%
- Growth Percent (CAKI-1): 77.6% and 77.61%
- Growth Percent (SK-OV-3): 125.8% and 125.83%
- Growth Percent (HCT-116): 102.9%
- Growth Percent (HCC-2998): 99.9% and 99.98%
- Growth Percent (RPMI-8226): 106.0% and 106.04%
- Growth Percent (KM12): 102.0% and 102.03%
- Growth Percent (SF-295): 91.9% and 91.96%
- Growth Percent (K-562): 94.9% and 94.99%
- Growth Percent (PC-3): 100.1% and 100.15%
- Growth Percent (SK-MEL-28): 100.9% and 100.91%
- Growth Percent (COLO 205): 115.6% and 115.62%
- Growth Percent (NCI-H322M): 101.8% and 101.81%
- Growth Percent (TK-10): 123.2% and 123.28%
- Growth Percent (HL-60(TB)): 103.0% and 103.03%
- Growth Percent (SF-539): 92.8% and 92.86%
- Growth Percent (MALME-3M): 101.18%
- Growth Percent (OVCAR-8): 104.4% and 104.46%
- Growth Percent (MCF7): 87.2% and 87.27%
- Growth Percent (SR): 78.2%
- Growth Percent (SN12C): 92.8% and 92.82%
- Growth Percent (MDA-MB-435): 98.5% and 98.58%
- Growth Percent (SNB-19): 93.0% and 93.06%
- Growth Percent (786-0): 98.6% and 98.65%
- Growth Percent (SF-268): 91.8% and 91.83%
- Growth Percent (MDA-MB-231/ATCC): 100.3% and 100.34%
- Growth Percent (T-47D): 90.8% and 90.83%
- Growth Percent (NCI-H522): 86.6% and 86.62%
- Growth Percent (ACHN): 95.0% and 95.07%
- Growth Percent (LOX IMVI): 96.0% and 96.03%
- Growth Percent (OVCAR-3): 96.9% and 96.92%
- Growth Percent (UACC-257): 107.0% and 107.03%
- Growth Percent (HOP-92): 99.8% and 99.83%
- Growth Percent (U251): 90.0% and 90.06%
- Growth Percent (BT-549): 112.4% and 112.44%
- Growth Percent (NCI-H23): 90.5% and 90.51%
